Assay results reported in patent US5183821A, “Method for treating leukemias using N-(2-dimethylaminoethyl)-3-amino-1,8-naphthalimide for treating leukemias and solid tumors” (priority 1991, dated 1993).
In brackets after ≈: the same amount, converted by molar mass. Several values for one entry are separate records, joined by “and”; a condition that tells them apart may be missing. Equal values may be shown once. Entries after “also recorded” stand apart in the source; their conditions may differ.

How the values were obtained:
beagle dogs [1] = assay: Five daily dose dog toxicity study; type: in vivo
Description: Preclinical toxicity studies of BIDA were completed in CD2F1 Mice, Fischer 344 rats and beagle dogs (4). The animals were injected IV with a single bolus or daily for five days.
A preclinical toxicology study of benzisoquinolinedione (NSC-308847) was done at Springborn Institute for Bioresearch, Inc. using CD2 F1 mice, Fischer 344 rats and beagle dogs. Animals were injected intravenously on a single dose (X1) or five daily dose (X5) regimen. Bulk drug was titrated with 0.5N HCl to form a salt solution of benzisoquinolinedione at a pH of 5.0-6.5. Sterile 0.9% saline was used for diluting the dosing solutions and was used for the vehicle control animals.
The following summarizes the major organ toxicities resulting from IV administration of benzisoquinolinedione to dogs.

B16 Melanocarcinoma [2] = assay: Experiment 16: B16 i.p., saline with Tween-80, male; type: in vivo, Mouse B6 C3 F1
Excerpt: (§1) Tumor: B16 Melanocarcinoma
(§2) Inoculum Site: Intraperitoneal
(§3) Tissue: Homogenate (or brei), tumor
(§4) Vehicle: Saline with Tween-80
(§5) Treatment schedule (relative to tumor inoculation day): daily on days 1-9
(§6) Day of evaluation (relative to tumor inoculation day): 60
(§7) Parameter: Median survival time (MST) in days
(§8) NCI minimal activity criteria: Percent T/C≥125
(§9) Percent T/C: Ratio of test (T) evaluation to control (C) evaluation expressed as a percentage

CX-1 colon xenograft = assay: NCI screen, CX-1 colon xenograft, renal capsule (summary); type: in vivo, human tumor xenograft in athymic mice; settings: for Antitumor activity in words: CX-1 colon xenograft
Excerpt: (§10) The activity of the compound has been evaluated by experiments carried out under the auspices of the Division of Cancer Treatment, National Cancer Institute, employing techniques considered to be reliable indicators of chemotherapeutic utility in the treatment of forms of cancer in human patients. The details of the methodology employed in the reported experiments may be determined with reference to established NCI screening methods.
(§11) In the experiments conducted by the NCI, evaluation of activity is made on the basis of appropriate parameters, such as median survival time (MST) or change in average tumor diameter (CATD)in ocular micrometer units (OMU).

B16 Melanocarcinoma [3] = assay: Experiment 18: B16 i.p., saline with Tween-80, male; type: in vivo, Mouse B6 C3 F1
Excerpt: as §1, §2, §3, §4, §5, §6, §7, §8, §9

L-1210 Lymphoid leukemia [4] = assay: Experiment 5: L-1210 i.p., 10^5 cells, acid diluted with saline, female; type: in vivo, Mouse CD2 F1 (CDF1)
Excerpt: (§12) Host: Mouse CD2 F1 (CDF1)
(§13) Tumor: L-1210 Lymphoid leukemia
as §2
(§14) Vehicle: Acid diluted with saline
as §5
(§15) Day of evaluation (relative to tumor inoculation day): 30
as §7, §8, §9

[5] = system: P388 Lymphocytic leukemia; assay: NCI screen, P388 Lymphocytic leukemia, intraperitoneal (summary); type: in vivo, Mouse; settings: for maximum increased life span: days 2-9 as printed; for Antitumor activity in words: P388
Excerpt: as §10, §11
The compound was found initially to be active in the P388 leukemia pre-screen, with T/C values (ratio of Test (T) evaluation to control (C) evaluation expressed as a percentage) of 177 and 176. Both values exceed the minimum T/C values for interest by the Decision Network Committe.

beagle dogs [6] = settings: dog, in vivo
Excerpt: To determine the source of the color, the following analyses were done: HPLC and TLC (for drug); routine urinalyses, orthotolidine reagent strip and sulfosalicylic acid/ammonium sulfate precipitation tests (for occult blood).

L-1210 Lymphoid leukemia [7] = assay: Experiment 2: L-1210 s.c., 10^5 cells, acid diluted with saline, female; type: in vivo, Mouse CD2 F1 (CDF1)
Excerpt: as §12, §13
Inoculum site: Subcutaneous
as §14, §5, §15, §7, §8, §9

physchem = type: physicochemical
Description: While the compound was generally tested as a suspension in Tween-80, in one L1210 experiment it was tested as a solution in 0.1 N HCL diluted with saline. The level of activity (ILS=117%) was maintained. The solubilities of the compound in 0.01 N and 0.1 HCl are approximately 3 and 30 mg/ml, respectively.
Formulation: 100 mg drug and 1 N HCl lyophilized yield the salt. The lyophilized cake dissolves in 2 ml sterile water to yield a 50 mg/ml red solution at pH 5.0-7.0.

CD8F1 mammary tumor = assay: NCI screen, CD8F1 mammary tumor, subcutaneous (summary); type: in vivo, Mouse; settings: for Antitumor activity in words: CD8F1 mammary
Excerpt: as §10, with “methods. In the experiments conducted by the NCI, evaluation of activity is made on the basis of appropriate parameters, such as median survival time (MST) or change in average tumor diameter (CATD)in ocular micrometer units (OMU).” for “methods.”

## CN(C)CCN1C(=O)c2cccc3cc(N)cc(c23)C1=O [Example 9, 1H-Benz[de]isoquinoline-1,3(2H)-dione, 5-amino-2-[2-(dimethylamino)ethyl]]
Beagle dogs [1]; 0.38 mg/kg/day
  drug-related toxicities: No drug-related toxicities were found
Beagle dogs [1]; 0.38 mg/kg/day (1/10MELD10)
  Mortality / lethality: 0/4
Beagle dogs [1]; 3.8 mg/kg/day
  drug-related toxicities: No drug-related toxicities were found
Beagle dogs [1]; 3.8 mg/kg/day (MELD10)
  Mortality / lethality: 0/4
Beagle dogs [1]; 11.4 mg/kg/day
  gross or microscopic lesions: No drug-related gross or microscopic lesions were found
Beagle dogs [1]; 11.4 mg/kg/day (3XMELD10), listed as BIDA
  Mortality / lethality: Neither the single injection of 2×MELD10 or the daily×5 injection of the 3×MELD10 caused lethality
Beagle dogs [1]; 11.4 mg/kg/day (3XMELD10), listed as benzisoquinolinedione
  Mortality / lethality: no deaths and 0/4
Beagle dogs [1]; 11.4 mg/kg/day, all four dogs
  leukopenia (leukocyte count): 3.5-6.6 ×10^3 /cmm
Beagle dogs [1]; 11.4 mg/kg/day, days 2 and/or 3
  Nervous system signs: Three of four dogs showed signs indicating nervous system toxicity
Beagle dogs [1]; 11.4 mg/kg/day, one dog, day 8
  BUN: 27 mg/dL
Beagle dogs [1]; 11.4 mg/kg/day, two dogs, day 4 or 8
  decrease in hemoglobin, hematocrit and red blood cells below pretest values: 15-24%
Beagle dogs [1]; five daily doses i.v., listed as benzisoquinolinedione
  toxicity summary, dogs: reversible toxicity to the hematopoietic system, kidney and liver; also recorded: Signs indicative of pain and/or neurotoxicity; also recorded: No drug-related gross or microscopic lesions
B16 Melanocarcinoma [2]; 1.00 mg/kg i.p.
  Median survival time (MST): 17.6 days
  Percent T/C: 102%
B16 Melanocarcinoma [2]; 2.00 mg/kg i.p.
  Median survival time (MST): 17.3 days
  Percent T/C: 101%
B16 Melanocarcinoma [2]; 4.00 mg/kg i.p.
  Median survival time (MST): 19.3 days
  Percent T/C: 112%
B16 Melanocarcinoma [2]; 8.00 mg/kg i.p.
  Median survival time (MST): 20.3 days
  Percent T/C: 118%
B16 Melanocarcinoma [2]; 16.00 mg/kg i.p.
  Median survival time (MST): 35.0 days
  Percent T/C: 87%
B16 Melanocarcinoma [2]; 32.00 mg/kg i.p.
  Median survival time (MST): 8.3 days
CX-1 colon xenograft; listed as BIDA
  Antitumor activity in words: No activity was seen
CX-1 colon xenograft; listed as the compound
  Antitumor activity in words: not active
CX-1 colon xenograft; change in average tumor diameter, 4 tests, full wrapped cell: Activity not confirmed
  Table II evaluation: Activity not
B16 Melanocarcinoma [3]; 4.00 mg/kg i.p.
  Median survival time (MST): 22.0 days
  Percent T/C: 113%
B16 Melanocarcinoma [3]; 8.00 mg/kg i.p.
  Median survival time (MST): 23.2 days
  Percent T/C: 120%
B16 Melanocarcinoma [3]; 16.00 mg/kg i.p.
  Median survival time (MST): 27.0 days
  Percent T/C: 139%
B16 Melanocarcinoma [3]; 32.00 mg/kg i.p.
  Median survival time (MST): 6.3 days
L-1210 Lymphoid leukemia [4]; 5.00 mg/kg i.p.
  Median survival time (MST): 11.0 days
  Percent T/C: 113%
L-1210 Lymphoid leukemia [4]; 7.00 mg/kg i.p.
  Median survival time (MST): 11.1 days
  Percent T/C: 114%
L-1210 Lymphoid leukemia [4]; 10.00 mg/kg i.p.
  Median survival time (MST): 11.4 days
  Percent T/C: 117%
L-1210 Lymphoid leukemia [4]; 16.00 mg/kg i.p.
  Median survival time (MST): 17.0 days
  Percent T/C: 175%
L-1210 Lymphoid leukemia [4]; 24.00 mg/kg i.p.
  Median survival time (MST): 13.3 days
  Percent T/C: 137%
[5]; 8 mg/kg i.p.
  maximum increased life span: 76%
[5]; 16 mg/kg i.p.
  maximum increased life span: 77%
[5]; listed as BIDA
  Antitumor activity in words: active
[5]; listed as the compound
  Antitumor activity in words: at least a reproducible minimal activity
[5]; median survival time, 9 tests, full wrapped cell: Reproducible minimal activity
  Table II evaluation: Reproducible minimal
[5]; test/control as percentage, listed as the compound
  T/C values in the P388 leukemia pre-screen: 177% and 176%
Beagle dogs [6]
  blood in urine: the presence of blood was negligible
L-1210 Lymphoid leukemia [7]; 5.00 mg/kg i.p.
  Median survival time (MST): 8.2 days
  Percent T/C: 102%
L-1210 Lymphoid leukemia [7]; 7.00 mg/kg i.p.
  Median survival time (MST): 8.3 days
  Percent T/C: 103%
L-1210 Lymphoid leukemia [7]; 10.00 mg/kg i.p.
  Median survival time (MST): 9.0 days
  Percent T/C: 112%
L-1210 Lymphoid leukemia [7]; 16.00 mg/kg i.p.
  Median survival time (MST): 12.0 days
  Percent T/C: 150%
L-1210 Lymphoid leukemia [7]; 24.00 mg/kg i.p.
  Median survival time (MST): 9.3 days
  Percent T/C: 116%
physchem; 0.01 n hcl
  solubility: ~3 mg/mL (≈ 10.6 mM)
physchem; 0.1 hcl
  solubility: ~30 mg/mL (≈ 106 mM)
physchem; lyophilized cake in 2 ml sterile water
  pH of reconstituted solution: 5.0-7.0
CD8F1 mammary tumor; listed as BIDA
  Antitumor activity in words: not active
CD8F1 mammary tumor; listed as the compound
  Antitumor activity in words: not observed to be effective
CD8F1 mammary tumor; change in median tumor weight, 15 tests, full wrapped cell: Activity not confirmed
  Table II evaluation: Activity not
